# Values quoted from earlier work as cited in patent publication US7217431B2, “Controlled agglomeration” (LifeCycle Pharma A/S, priority 2001, dated 2007).
# Where two headings read alike, the source gives them in different places.
Structure (SMILES),"Bioavailability (Table 2, in words)",Bioavailability (in vivo)
CC1CC(OC(=O)C(O)c2ccccc2)CC(C)(C)C1 (centres unmarked) [Cyclandelate],Low,
C#C[C@]1(O)CC[C@H]2[C@@H]3CCC4=Cc5oncc5C[C@]4(C)[C@H]3CC[C@@]21C [Danazol],Low,
CC(=O)OC[C@H]1O[C@@H]([S-])[C@H](OC(C)=O)[C@@H](OC(C)=O)[C@@H]1OC(C)=O.CCP(CC)CC.[Au+] [Auranofin],,Low (15–25%)

# More lines, main results first:
"Bioavailability (Table 2, in words)",Structure (SMILES),Bioavailability (in vivo)
Low–moderate,COc1ccc(CCN2CCC(Nc3nc4ccccc4n3Cc3ccc(F)cc3)CC2)cc1 [Astemizole],
Low,OCCN1CCN(CCCN2c3ccccc3Sc3ccc(Cl)cc32)CC1 [Perphenazine],
